Experimental data published in the CATMoS acute toxicity set (Mansouri et al. 2021).
Values joined by “and” are separate entries in the source; they are usually repeats but may differ in a detail not shown here. Equal values may be shown once.

Assay: rat acute oral toxicity
Settings: in vivo

SMILES | LD50
O=C1C(Cl)=C(Cl)C(=O)C(Cl)=C1Cl | 4000 mg/kg
C=CC1CC2C=CC1C2 (stereo not given) | 5240 mg/kg
COCC(C)OC(C)=O (stereo not given) | 5160 mg/kg
O=C=Nc1ccccc1 | 800 mg/kg
C#C[C@]1(O)CC[C@H]2[C@@H]3CCc4cc(O)ccc4[C@H]3CC[C@@]21C | 960 mg/kg
CCOCCOCCO | 5570 mg/kg
CC(C)(C)OOC1(OOC(C)(C)C)CCCCC1 | 13300 mg/kg
Cc1ccc(NC(=O)N(C)C)cc1Cl | 5800 mg/kg
CC1=C(C(=O)Nc2ccccc2)SCCO1 | 430 mg/kg
CC(C)COC(=O)CC(C(=O)OCC(C)C)S(=O)(=O)O (stereo not given) | 2770 mg/kg
CCOCCO | 1520 mg/kg
Oc1c(Br)cc(Br)cc1Br | 1490 mg/kg
CCn1cc(C(=O)O)c(=O)c2ccc(C)nc21 | 1160 mg/kg
CC(C)(C)c1ccc(CSc2cnn(C(C)(C)C)c(=O)c2Cl)cc1 | 570 mg/kg
O=C(Nc1ccccc1)Nc1ccnc(Cl)c1 | 4900 mg/kg
CCC(C(c1ccc(Cl)cc1)c1ccc(Cl)cc1)[N+](=O)[O-] (stereo not given) | 300 mg/kg
CCOP(=O)(OCC)OP(=O)(OCC)OCC | 0.5 mg/kg
CCCCOCC1CO1 (stereo not given) | 1660 mg/kg
CC(C)(C)CC(C)(C)c1ccc(O)cc1 | 4040 mg/kg
ClC=C(Cl)Cl | 4920 mg/kg
BrC(Br)Br | 933 mg/kg
COc1ccc(C(CN)C2(O)CCCCC2)cc1 (stereo not given) | 200 mg/kg

SMILES | LD50
CCOP(=S)(NC(C)C)Oc1ccccc1C(=O)OC(C)C (stereo not given) | 21.1 mg/kg
N=C(N)N | 475 mg/kg and 730 mg/kg
O=C1c2ccccc2C(=O)N1SC(Cl)(Cl)Cl | 2640 mg/kg
CCCCCCCCCCCCNC(=N)N | 566 mg/kg
Nc1c(Cl)c(F)nc(OCC(=O)O)c1Cl | 2400 mg/kg
Clc1nc(Cl)nc(Cl)n1 | 315 mg/kg
COC(=O)CCS | 182 mg/kg
CCN(CC)C(=S)S | 1500 mg/kg
CCN(CC)C(=O)SCc1ccc(Cl)cc1 | 920 mg/kg
O=C(C(Cl)(Cl)Cl)C(Cl)(Cl)Cl | 240 mg/kg
COCCOCCOCCOCCOC | 3850 mg/kg
CCOP(=S)(OCC)Oc1cc(C)nc(C(C)C)n1 | 92 mg/kg
CCNc1nc(NC(C)C)nc(SC)n1 | 1060 mg/kg
CCc1nn(C)c(C(=O)NCc2ccc(C(C)(C)C)cc2)c1Cl | 595 mg/kg
CCS(=O)CCSP(=O)(OC)OC (stereo not given) | 48 mg/kg
COC(=O)OC(=O)OC | 260 mg/kg
CCCC(C)(COC(N)=O)COC(N)=O | 794 mg/kg
COCCOC(C)=O | 1250 mg/kg
COC(=O)CS | 84 mg/kg
CCOP(=S)(OCC)Oc1ccc(Cl)cc1Cl | 172 mg/kg
O=S1(=O)CCCC1 | 1970 mg/kg
CC=Cc1ccc2c(c1)OCO2 | 1300 mg/kg

SMILES | LD50
CCCC=C(C=O)CC | 3000 mg/kg
CC(=O)OCCc1ccccc1 | 3670 mg/kg
CCCSP(=O)(OCC)Oc1ccc(Br)cc1Cl (stereo not given) | 358 mg/kg
CC(=O)C(C)C | 148 mg/kg
Cn1cnc2c1c(=O)[nH]c(=O)n2C | 950 mg/kg
CCCC(=O)Nc1ccc(OCC(O)CNC(C)C)c(C(C)=O)c1 (stereo not given) | 3200 mg/kg
Clc1ccc(C(c2ccc(Cl)cc2)C(Cl)(Cl)Cl)cc1 | 87 mg/kg
CNC(=O)N(C)c1nnc(C(C)(C)C)s1 | 640 mg/kg
CC(C)CC(=O)CC(C)C | 5260 mg/kg
CC(=O)Oc1ccccc1C(=O)O | 1280 mg/kg
CCN(C(=O)N(CC)c1ccccc1)c1ccccc1 | 781 mg/kg
CCCCOC(=O)CCCCCCCCC(=O)OCCCC | 14900 mg/kg
C/C=C(/C)C(=O)O[C@H]1CCN2CC=C(COC(=O)[C@](O)([C@H](C)OC)C(C)(C)O)[C@H]12 | 110 mg/kg
CCOP(=S)(OCC)SCSCC | 1 mg/kg
O=c1nc(O)n(Cl)c(=O)n1Cl | 1670 mg/kg
CCN(CC)C(=O)c1cccc(C)c1 | 1950 mg/kg
O=Cc1ccc(-c2ccccc2)cc1 | 1000 mg/kg
C[N+](C)(C)CCO | 3400 mg/kg
c1ccc2[nH]c(-c3cscn3)nc2c1 | 2080 mg/kg
C1CN(SSN2CCOCC2)CCO1 | 4300 mg/kg
Cc1ccc(N)cc1Cl | 302 mg/kg
CC1=CCC(O)(C(C)C)CC1 (stereo not given) | 1300 mg/kg

SMILES | LD50
CCCCOCCOCCO | 5080 mg/kg
CCSC(=O)N(CC)C1CCCCC1 | 1680 mg/kg
O=C1C2CC=CCC2C(=O)N1SC(Cl)(Cl)Cl (stereo not given) | 9000 mg/kg
CCOC(=O)C(SP(=S)(OC)OC)c1ccccc1 (stereo not given) | 71 mg/kg
Cc1cccnc1 | 400 mg/kg
O=C(O)C1(C(=O)Nc2ccc(Cl)cc2Cl)CC1 | 208 mg/kg
COP(=O)(OC)O/C(=C\Cl)c1cc(Cl)c(Cl)cc1Cl | 480 mg/kg
NNc1nncc2ccccc12 | 173 mg/kg
O=S(=O)(O)CCCS | 3720 mg/kg
O=C(O)C=CC(=O)O | 708 mg/kg
COCCCN | 598 mg/kg
C=C(C)C(=O)OCCCC | 16000 mg/kg
CC(=O)CC(C)=O | 570 mg/kg
CC[C@H]1OC(=O)[C@H](C)[C@@H](O[C@H]2C[C@@](C)(OC)[C@@H](O)[C@H](C)O2)[C@H](C)[C@@H](O[C@@H]2O[C@H](C)C[C@H](N(C)C)[C@H]2O)[C@](C)(O)C[C@@H](C)C(=O)[C@H](C)[C@@H](O)[C@]1(C)O | 4600 mg/kg
O=C(O)c1cccnc1 | 4500 mg/kg
C=C(C)C(=O)OCCN=C=O | 670 mg/kg
CN(C)C=O | 3000 mg/kg
CC(COC(=O)c1ccccc1)OC(=O)c1ccccc1 (stereo not given) | 2660 mg/kg
Cc1ccc([N+](=O)[O-])c(C)c1 | 1690 mg/kg
